Laboratory results as given in US20150265691A1 (priority 2006, published 2015).

Tests used:
[1] = tested on: rabbit anti-B. anthracis spore polyclonal IgG antibodies; type: binding
[2] = tested on: rabbit anti-anthrax spore IgG; type: binding

| Compound | IgG signal detected by glycan arrays (n = 3) Mean [1] | also measured |
| --- | --- | --- |
| CO[C@H]1O[C@H](C)[C@@H](NC(=O)[C@@H](O)CCO)[C@H](O)[C@@H]1O[C@H]1O[C@H](C)[C@@H](NC(=O)[C@@H](O)CCO)[C@H](O)[C@@H]1O[C@H]1O[C@H](C)[C@@H](NC(=O)[C@@H](O)CCO)[C@H](O)[C@@H]1O[C@H]1O[C@H](C)[C@@H](NC(=O)[C@@H](O)CCO)[C@H](O)[C@@H]1OC [Saccharide 28, Methyl 2-O-methyl-4,6-dideoxy-4-(3-deoxy-L-glycero-tetronamido)-<-D-mannopyranosyl-(1→2)-bis-[4,6-dideoxy-4-(3-deoxy-L-glycero-tetronamido)-<-D-mannopyranosyl-(1→2)]-4,6-dideoxy-4-(3-deoxy-L-glycero-tetronamido)-<-D-mannopyranoside] | 1.07 |  |
| O=C[C@H](O)[C@H](O)[C@@H](O)[C@@H](O)CO [Saccharide 13, L-Mannose] | 1.06 |  |
| COC(=O)CCCCCO[C@H]1O[C@@H](C)[C@H](O)[C@@H](O)[C@H]1O [Saccharide 15, 5-(Methoxycarbonyl)pentyl β-L-rhamnopyranoside] | 0.95 |  |
| Nigerose [reference compound] |  | inhibition of antibody reactivity with anthrose-tetrasaccharide [2]: no inhibition |
| O=C[C@H](O)[C@@H](O)[C@H](O)[C@H](O)CO [Saccharide 9, D-Glucose] | 1.04 |  |
| CO[C@H]1O[C@H](C)[C@@H](NC(=O)[C@@H](O)CCO)[C@H](O)[C@@H]1O[C@H]1O[C@H](C)[C@@H](NC(=O)[C@@H](O)CCO)[C@H](O)[C@@H]1O[C@H]1O[C@H](C)[C@@H](NC(=O)[C@@H](O)CCO)[C@H](O)[C@@H]1OC [Saccharide 27, Methyl 2-O-methyl-4,6-dideoxy-4-(3-deoxy-L-glycero-tetronamido)-<-D-mannopyranosyl-(1→2)-4,6-dideoxy-4-(3-deoxy-L-glycero-tetronamido)-<-D-mannopyranosyl-(1→2)-4,6-dideoxy-4-(3-deoxy-L-glycero-tetronamido)-<-D-mannopyranoside] | 1.01 |  |
| COC(=O)CCCCCO[C@H]1O[C@@H](C)[C@H](O)[C@@H](O)[C@H]1O[C@@H]1O[C@@H](C)[C@H](O)[C@@H](O[C@@H]2O[C@@H](C)[C@H](O)[C@@H](O)[C@H]2O)[C@H]1O [Saccharide 20, 5-(Methoxycarbonyl)pentyl α-L-rhamnopyranosyl-(1→3)-α-L-rhamnopyranosyl-(1→2)-β-L-rhamnopyranoside] | 0.95 |  |
| CO[C@H]1O[C@H](CO)[C@@H](O)[C@H](O[C@H]2O[C@H](CO)[C@H](O)[C@H](O)[C@H]2O[C@@H]2O[C@@H](C)[C@H](O)[C@@H](O)[C@H]2O)[C@H]1NC(C)=O [Saccharide 23, Methyl <-L-rhamnopyranosyl-(1→2)-<-D-galactopyranosyl-(1→3)-2-acetamido-2-deoxy-<-D-glucopyranoside] | 1.01 |  |
| COC(=O)CCCCCO[C@H]1O[C@@H](C)[C@H](O)[C@@H](O)[C@H]1O[C@@H]1O[C@@H](C)[C@H](O)[C@@H](O)[C@H]1O [Saccharide 19, 5-(Methoxycarbonyl)pentyl α-L-rhamnopyranosyl-(1→2)-β-L-rhamnopyranoside] | 0.98 |  |
| CC(=O)N[C@@H](C=O)[C@@H](O)[C@@H](O)[C@H](O)CO [Saccharide 11, N-acetyl-2-amino-2-deoxy-D-galactose] | 1.03 |  |
| CO[C@H]1O[C@H](CO)[C@H](O)[C@H](O)[C@H]1O[C@@H]1O[C@@H](C)[C@H](O)[C@@H](O)[C@H]1O [Saccharide 21, Methyl <-L-rhamnopyranosyl-(1→2)-<-D-galactopyranoside, reference compound] | 1.08 |  |
| CO[C@H]1O[C@H](CO)[C@@H](O)[C@H](O[C@H]2O[C@H](CO)[C@H](O)[C@H](O)[C@H]2O[C@@H]2O[C@@H](C)[C@H](O)[C@@H](O[C@@H]3O[C@@H](C)[C@H](O)[C@@H](O)[C@H]3O)[C@H]2O)[C@H]1NC(C)=O [Saccharide 26, Methyl <-L-rhamnopyranosyl-(1→3)-<-L-rhamnopyranosyl-(1→2)-<-D-galactopyranosyl-(1→3)-2-acetamido-2-deoxy-<-D-glucopyranoside] | 1.01 |  |
| CO[C@@H]1O[C@@H](C)[C@H](O)[C@@H](O[C@@H]2O[C@@H](C)[C@H](O)[C@@H](O)[C@H]2O)[C@H]1O [Saccharide 24, Methyl <-L-rhamnopyranosyl-(1→3)-<-L-rhamnopyranoside, reference compound] | 1.02 |  |
| [Methyl 2-O-methyl-4,6-dideoxy-4-(3-deoxy-L-glycero-tetronamido)-<-D-mannopyranosyl-(1→2)-tris[4,6-dideoxy-4-(3-deoxy-L-glycero-tetronamido)-<-D-mannopyranosyl-(1→2)]-4,6-dideoxy-4-(3-deoxy-L-glycero-tetronamido)-<-D-mannopyranoside]10-BSA [Saccharide 33] | 1.37 |  |
| COC(=O)CCCCCO[C@@H]1O[C@@H](C)[C@H](O)[C@@H](O)[C@H]1O[C@@H]1O[C@@H](C)[C@H](O)[C@@H](O[C@@H]2O[C@H](C)[C@@H](NC(=O)CC(C)(C)O)[C@H](O)[C@H]2OC)[C@H]1O [Saccharide 3, 5-(Methoxycarbonyl)pentyl 4-(3-hydroxy-3-methylbutanamido)-2-O-methyl-4,6-dideoxy-β-D-glucopyranosyl-(1→3)-α-L-rhamnopyranosyl-(1→2)-α-L-rhamnopyranoside] | 2.73 | antibody reactivity detected by glycan arrays [1]: significant amounts of IgG antibodies; IC50 [2]: 0.016 nM; relative inhibiting powers [2]: 1.00 |
| O=C[C@@H](O)[C@@H](O)[C@H](O)[C@H](O)CO [Saccharide 10, D-Mannose] | 1.03 |  |

| Compound | IgG signal detected by glycan arrays (n = 3) Mean [1] | also measured |
| --- | --- | --- |
| Streptococcus pneumoniae type 23 capsular polysaccharide [Saccharide 35] |  | IgG reactivities (Ratio of Sg./bg.) Mean [1]: 12.35; antibody reactivity detected by glycan arrays [1]: positive spots |
| CO[C@H]1O[C@H](CO)[C@H](O)[C@H](O)[C@H]1O[C@@H]1O[C@@H](C)[C@H](O)[C@@H](O[C@@H]2O[C@@H](C)[C@H](O)[C@@H](O)[C@H]2O)[C@H]1O [Saccharide 25, Methyl <-L-rhamnopyranosyl-(1→3)-<-L-rhamnopyranosyl-(1→2)-<-D-galactopyranoside, reference compound] | 1.02 |  |
| isomaltopentose [IM5, reference compound] |  | inhibition of antibody reactivity with anthrose-tetrasaccharide [2]: no inhibition |
| COC(=O)CCCCCO[C@@H]1O[C@@H](C)[C@H](O)[C@@H](O)[C@H]1O [Saccharide 14, 5-(Methoxycarbonyl)pentyl α-L-rhamnopyranoside] | 0.97 |  |
| COC(=O)CCCCCO[C@@H]1O[C@@H](C)[C@H](O)[C@@H](O)[C@H]1O[C@@H]1O[C@@H](C)[C@H](O)[C@@H](O)[C@H]1O [Saccharide 18, 5-(Methoxycarbonyl)pentyl α-L-rhamnopyranosyl-(1→2)-α-L-rhamnopyranoside] | 1.26 |  |
| O=C[C@H](O)[C@@H](O)[C@@H](O)[C@H](O)CO [Saccharide 8, D-Galactose] | 1.06 |  |
| C[C@H](O)[C@H](O)[C@@H](O)[C@@H](O)C=O [Saccharide 6, L-Rhamnose] | 1.03 |  |
| Methyl 2-O-methyl-4,6-dideoxy-4-(3-deoxy-L-glycero-tetronamido)-<-D-mannopyranosyl-(1→2)-tris[4,6-dideoxy-4-(3-deoxy-L-glycero-tetronamido)-<-D-mannopyranosyl-(1→2)]-4,6-dideoxy-4-(3-deoxy-L-glycero-tetronamido)-<-D-mannopyranoside [Saccharide 29] | 1.09 |  |
| [Methyl 2-O-methyl-4,6-dideoxy-4-(3-deoxy-L-glycero-tetronamido)-<-D-mannopyranosyl-(1→2)-bis[4,6-dideoxy-4-(3-deoxy-L-glycero-tetronamido)-<-D-mannopyranosyl-(1→2)]-4,6-dideoxy-4-(3-deoxy-L-glycero-tetronamido)-<-D-mannopyranoside]10-BSA [Saccharide 32] | 1.20 |  |
| O=C[C@H](O)[C@@H](O)[C@@H](O)CO [Saccharide 12, L-Arabinose] | 1.03 |  |
| [Methyl 2-O-methyl-4,6-dideoxy-4-(3-deoxy-L-glycero-tetronamido)-<-D-mannopyranosyl-(1→2)-4,6-dideoxy-4-(3-deoxy-L-glycero-tetronamido)-<-D-mannopyranosyl-(1→2)-4,6-dideoxy-4-(3-deoxy-L-glycero-tetronamido)-<-D-mannopyranoside]5-BSA [Saccharide 31] | 1.53 |  |
| C[C@@H](O)[C@H](O)[C@H](O)[C@@H](O)C=O [Saccharide 7, D-Fucose] | 1.88 |  |
| COC(=O)CCCCCO[C@@H]1O[C@@H](C)[C@H](O)[C@@H](O[C@@H]2O[C@@H](C)[C@H](O)[C@@H](O)[C@H]2O)[C@H]1O [Saccharide 16, 5-(Methoxycarbonyl)pentyl α-L-rhamnopyranosyl-(1→3)-α-L-rhamnopyranoside] | 1.00 |  |
| CO[C@H]1O[C@H](CO)[C@H](O)[C@H](O)[C@H]1O[C@@H]1O[C@@H](C)[C@H](O)[C@@H](O[C@@H]2O[C@@H](C)[C@H](O)[C@@H](O[C@H]3O[C@H](CO)[C@@H](O)[C@H](O)[C@H]3NC(C)=O)[C@H]2O)[C@H]1O [Saccharide 22, Methyl 2-acetamido-2-deoxy-<-D-glucopyranosyl-(1→3)-<-L-rhamnopyranosyl-(1→3)-<-L-rhamnopyranosyl-(1→2)-<-D-galactopyranoside, reference compound] | 0.95 |  |
| Methyl 2-O-methyl-4,6-dideoxy-4-(3-deoxy-L-glycero-tetronamido)-<-D-mannopyranosyl-(1→2)-tetrakis[4,6-dideoxy-4-(3-deoxy-L-glycero-tetronamido)-<-D-mannopyranosyl-(1→2)]-4,6-dideoxy-4-(3-deoxy-L-glycero-tetronamido)-<-D-mannopyranoside [Saccharide 30] | 1.67 |  |
